Experimental data: ChEMBL document CHEMBL1201862, “PubChem BioAssay data set” (2004)
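Protocol summary: plate cells (96-well), add compound at 5 concentrations, incubate 48 h, interpolate endpoints linearly. At the GI50, growth is halved.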 The source made the active and inactive calls. Cut-off read from the data, not from the text of the source: active = GI50 up to about 1.1 µM and inactive = higher.

How the values were obtained:
Assay in all cases: NCI-60 cell line screen, 48 h
LOX IMVI = test system: LOX IMVI
A549 = test system: A549
786-0 = test system: 786-0
RPMI-8226 = test system: RPMI-8226
EKVX = test system: EKVX
SNB-75 = test system: SNB-75
KM12 = test system: KM12
HOP-62 = test system: HOP-62
NCI-H23 = test system: NCI-H23
SNB-19 = test system: SNB-19
A498 = test system: A498
U-251 = test system: U-251
OVCAR-8 = test system: OVCAR-8
SK-OV-3 = test system: SK-OV-3
SK-MEL-28 = test system: SK-MEL-28
T47D = test system: T47D
M14 = test system: M14
SK-MEL-5 = test system: SK-MEL-5
OVCAR-4 = test system: OVCAR-4
MDA-MB-435 = test system: MDA-MB-435
MDA-N = test system: MDA-N
HL-60 = test system: HL-60
HCT-15 = test system: HCT-15
Hs-578T = test system: Hs-578T
OVCAR-5 = test system: OVCAR-5
RXF 393 = test system: RXF 393
IGROV-1 = test system: IGROV-1
SF-268 = test system: SF-268
UACC-257 = test system: UACC-257
SF-295 = test system: SF-295
MCF7 = test system: MCF7
CAKI-1 = test system: CAKI-1
HT-29 = test system: HT-29
SK-MEL-2 = test system: SK-MEL-2
NCI/ADR-RES = test system: NCI/ADR-RES
HCT-116 = test system: HCT-116
CCRF-CEM = test system: CCRF-CEM
SN12C = test system: SN12C
SR = test system: SR
UO-31 = test system: UO-31
HOP-92 = test system: HOP-92
COLO 205 = test system: COLO 205
TK-10 = test system: TK-10
NCI-H226 = test system: NCI-H226
DU-145 = test system: DU-145
ACHN = test system: ACHN
SF-539 = test system: SF-539
MOLT-4 = test system: MOLT-4
MDA-MB-231 = test system: MDA-MB-231
SW-620 = test system: SW-620
Malme-3M = test system: Malme-3M
PC-3 = test system: PC-3
K562 = test system: K562
HCC 2998 = test system: HCC 2998
NCI-H522 = test system: NCI-H522
NCI-H460 = test system: NCI-H460
OVCAR-3 = test system: OVCAR-3
BT-549 = test system: BT-549
UACC-62 = test system: UACC-62

Measured: GI50

O=C(O)/C=C/C(=O)Nc1cccc2c1-c1ccccc1C2=O
inactive: LOX IMVI 8.91 µM | A549 20.9 µM | 786-0 9.53 µM | RPMI-8226 8.81 µM | EKVX > 90.8 µM | SNB-75 > 20.6 µM | KM12 16.9 µM | HOP-62 8.75 µM | NCI-H23 18.2 µM | SNB-19 17.9 µM | A498 53 µM | U-251 5.27 µM | OVCAR-8 21.6 µM | SK-OV-3 22.9 µM | SK-MEL-28 > 29.6 µM | T47D > 51.5 µM | M14 9.4 µM | SK-MEL-5 4.39 µM | OVCAR-4 22.9 µM | MDA-MB-435 2.85 µM | MDA-N 2.99 µM | HL-60 1.28 µM | Hs-578T 3.76 µM | OVCAR-5 > 63.4 µM | RXF 393 8.2 µM | IGROV-1 4.75 µM | SF-268 16.3 µM | UACC-257 3.75 µM | SF-295 3.57 µM | MCF7 11.3 µM | CAKI-1 4.26 µM | HT-29 22.3 µM | SK-MEL-2 3.56 µM | NCI/ADR-RES 10.3 µM | HCT-116 42.8 µM | CCRF-CEM 4.32 µM | SN12C 36.6 µM | SR 9.2 µM | UO-31 11.8 µM | HOP-92 4.06 µM | COLO 205 13.1 µM | TK-10 5.68 µM | NCI-H226 31.2 µM | DU-145 10.3 µM | ACHN 17.3 µM | SF-539 3.46 µM | MOLT-4 2.63 µM | MDA-MB-231 13.3 µM | SW-620 5.53 µM | Malme-3M 8.28 µM | PC-3 5.7 µM | K562 3.91 µM | HCC 2998 22.2 µM | NCI-H522 3.25 µM | NCI-H460 3.67 µM | OVCAR-3 2.21 µM | BT-549 16.9 µM | UACC-62 6.58 µM
10.2 µM: HCT-15

N/N=C(\c1nc2ccc([N+](=O)[O-])cc2nc1O)C(O)c1ccc(Cl)c(Cl)c1 (configuration not stated)
> 100 µM: HCT-15
inactive: LOX IMVI 33.4 µM | A549 > 100 µM | 786-0 > 100 µM | RPMI-8226 22.8 µM | EKVX > 100 µM | SNB-75 > 100 µM | KM12 28.3 µM | HOP-62 > 100 µM | NCI-H23 > 100 µM | SNB-19 > 100 µM | A498 > 100 µM | U-251 > 100 µM | OVCAR-8 > 100 µM | SK-OV-3 88.1 µM | SK-MEL-28 > 100 µM | T47D 67.3 µM | M14 > 100 µM | SK-MEL-5 61.8 µM | OVCAR-4 > 100 µM | MDA-MB-435 71.6 µM | MDA-N > 100 µM | HL-60 47.4 µM | Hs-578T > 100 µM | OVCAR-5 > 100 µM | RXF 393 > 100 µM | IGROV-1 > 100 µM | SF-268 > 100 µM | UACC-257 > 100 µM | SF-295 > 100 µM | MCF7 > 100 µM | CAKI-1 > 100 µM | HT-29 > 100 µM | SK-MEL-2 > 100 µM | NCI/ADR-RES > 100 µM | HCT-116 71.3 µM | CCRF-CEM 15.8 µM | SN12C > 100 µM | SR 61.5 µM | UO-31 26.7 µM | HOP-92 > 100 µM | COLO 205 > 100 µM | TK-10 > 100 µM | NCI-H226 > 100 µM | DU-145 > 100 µM | ACHN 54.1 µM | SF-539 > 100 µM | MOLT-4 22 µM | MDA-MB-231 > 100 µM | SW-620 56.9 µM | Malme-3M > 100 µM | PC-3 > 100 µM | K562 96.6 µM | HCC 2998 > 100 µM | NCI-H522 13.9 µM | NCI-H460 82.4 µM | OVCAR-3 > 100 µM | BT-549 > 100 µM | UACC-62 > 100 µM

CSc1ccccc1P(CCP(c1ccccc1SC)c1ccccc1SC)c1ccccc1SC
active: NCI-H23 1 µM | HL-60 0.4 µM | IGROV-1 0.8 µM | HCT-116 0.413 µM | CCRF-CEM 0.953 µM | SR 1.11 µM | COLO 205 0.697 µM | PC-3 0.912 µM | OVCAR-3 0.543 µM
inactive: LOX IMVI 22.6 µM | A549 3.96 µM | 786-0 15.6 µM | RPMI-8226 4.47 µM | EKVX 19.6 µM | SNB-75 13 µM | KM12 18.6 µM | HOP-62 8.61 µM | SNB-19 35.4 µM | A498 40.4 µM | U-251 4.2 µM | OVCAR-8 8.73 µM | SK-OV-3 16.3 µM | SK-MEL-28 76.2 µM | T47D 12.4 µM | M14 24.3 µM | SK-MEL-5 55.5 µM | OVCAR-4 14.3 µM | MDA-MB-435 31.5 µM | MDA-N 50.5 µM | Hs-578T 28.7 µM | OVCAR-5 43.9 µM | RXF 393 30.8 µM | SF-268 36.4 µM | UACC-257 13.5 µM | SF-295 7.08 µM | MCF7 1.95 µM | CAKI-1 > 84.5 µM | HT-29 1.28 µM | SK-MEL-2 53.3 µM | NCI/ADR-RES > 93.1 µM | SN12C 38.3 µM | UO-31 > 44.4 µM | HOP-92 61.1 µM | TK-10 > 69 µM | NCI-H226 10.4 µM | DU-145 54.5 µM | ACHN 47.2 µM | SF-539 34.1 µM | MOLT-4 2.22 µM | MDA-MB-231 8.81 µM | SW-620 16.7 µM | Malme-3M 29.9 µM | K562 1.67 µM | HCC 2998 4.88 µM | NCI-H522 28.1 µM | NCI-H460 3.13 µM | BT-549 38.7 µM | UACC-62 > 86.5 µM
> 67 µM: HCT-15
